Laboratory results from patent publication US9826761B2, “Compositions and methods for mitigating dietary sulfur in animals” (SarTec Corporation, priority 2008, dated 2017).

Assays:
[1] = Titration of approx. 200 mM sulfide in fresh rumen fluid with 1 M metal chloride, silver/sulfide electrode; design: species or system Holstein cows; details: for mVolts (Negative Value): ~200 mM sulfide, fresh rumen fluid
Procedure: Fresh undiluted rumen fluid was obtained from rumen fistulated Holstein cows. 1.5 ml of a saturated solution of Na2S in water (approximately 2.7 M) was added to 18.5 ml of the rumen fluid. Sodium sulfide solutions were quantified by titration using a silver/sulfide electrode (Orion, Ion Plus Silver/Sulfide 9616BNWP) and a commercial lead standard (0.1 M Pb^2+, Orion 948206). The final concentration for sulfide ion in the rumen fluid was approximately 200 mM. This solution was then titrated with a 1 M solution of MnCl2 in water. The progress of the reaction was followed using the silver/sulfide electrode.
Fresh undiluted rumen fluid was obtained from rumen fistulated Holstein cows. 1.5 ml of saturated solution of Na2S in water (approximately 2.7 M) was added to 18.5 ml of the rumen fluid. The final concentration of sulfide ion in the rumen fluid was approximately 200 mM. This solution was then titrated with a 1 M solution of FeCl2 in water. The progress of the reaction was followed using the same silver/sulfide electrode set-up described above (Orion, Ion Plus Silver/Sulfide 9616BNWP).
Data taken from Examples 1 and 2 above were plotted together in order to gauge the relative efficacy of MnCl2 versus FeCl2 in removing sulfide ion from rumen fluid.

[2] = Titration of approx. 200 mM sulfide in 24 hour old rumen fluid with 1 M MnCl2, BaCl2 or CaCl2, silver/sulfide electrode; design: species or system Holstein cows
Procedure: 24 hour old undiluted rumen fluid from rumen fistulated Holstein cows was obtained. 4 ml of Na2S in water (approximately 1 M) was added to 16 ml of the rumen fluid. The final concentration of sulfide ion in the rumen fluid was approximately 200 mM. […] The progress of the reaction was followed using the same silver/sulfide electrode set-up described above (Orion, Ion Plus Silver/Sulfide 9616BNWP).

[3] = Precipitating activity: rumen fluid containing manganese compound titrated with 1.0M Na2S, silver/sulfide electrode; design: species or system Holstein cows; details: for mVolts: 200 mM MnCl2 in rumen fluid
Procedure: Next, 0.28 g of MnO(II) was placed in a 100 ml beaker and 20 ml of rumen fluid was added. Then 0.17 g of MnO2(IV) was placed in 100 ml beaker and 20 ml of rumen fluid was added. Each of these compositions, in addition to a rumen fluid control, was then titrated with a 1.0M solution of Na2S. The progress of the reaction was followed using the same silver/sulfide electrode set-up described above (Orion, Ion Plus Silver/Sulfide 9616BNWP).

[4] = Effect of MnCl2 supplementation on cattle (feedlot trial); assay type: in vivo, Angus based feeder calves; details: feeder calves, approx. 0.55 g/head/day MnCl2 and 10.0 g/head/day FeCl2 in supplement with Yucca extract
Description: In this example, forty-six Angus based feeder calves were blocked by sex (heifers and steers) and assigned within block to one of two treatments. One group (one pen of steers and one pen of heifers) was fed a commercially available feed additive including Yucca extract ([…] Corporation, Anoka, Minn.) mixed into the feedlot supplement. […] The supplement also contained minerals, vitamins, […]), and carrier feed products including corn, barley sprouts, and distillers grains. […] The results (DMI=dry matter intake, ADG=average daily gain) are shown below in Table 5.

With manganese (II) chloride [MnCl2] the “concentration of sulfide ion within the rumen fluid” value ([1]; addition of 1 M titrant to ~200 mM sulfide in fresh rumen fluid) was “effective to reduce the concentration of sulfide ion”, the “mVolts (Negative Value)” value ([1]; titrant volume 0.0 of 1M MnCl2) was 952.6 mVolts and the “mVolts (Negative Value)” value ([1]; titrant volume 0.3 of 1M MnCl2) was 950.5 mVolts. The “mVolts (Negative Value)” value ([1]; titrant volume 0.5 of 1M MnCl2) was 947.7 mVolts, the “mVolts (Negative Value)” value ([1]; titrant volume 0.7 of 1M MnCl2) was 947.8 mVolts and the “mVolts (Negative Value)” value ([1]; titrant volume 0.9 of 1M MnCl2) was 940.4 mVolts. The “mVolts (Negative Value)” value ([1]; titrant volume 1.1 of 1M MnCl2) was 929.7 mVolts, the “mVolts (Negative Value)” value ([1]; titrant volume 1.4 of 1M MnCl2) was 918.4 mVolts and the “mVolts (Negative Value)” value ([1]; titrant volume 1.6 of 1M MnCl2) was 899.9 mVolts. For the same substance, the “mVolts (Negative Value)” value ([1]; titrant volume 1.8 of 1M MnCl2) was 882.2 mVolts, the “mVolts (Negative Value)” value ([1]; titrant volume 2.0 of 1M MnCl2) was 861.5 mVolts and the “mVolts (Negative Value)” value ([1]; titrant volume 2.3 of 1M MnCl2) was 850.2 mVolts. The “mVolts (Negative Value)” value ([1]; titrant volume 2.5 of 1M MnCl2) was 830.5 mVolts, the “mVolts (Negative Value)” value ([1]; titrant volume 2.7 of 1M MnCl2) was 808.9 mVolts and the “mVolts (Negative Value)” value ([1]; titrant volume 2.9 of 1M MnCl2) was 777.1 mVolts. The “mVolts (Negative Value)” value ([1]; titrant volume 3.2 of 1M MnCl2) was 735.7 mVolts, the “mVolts (Negative Value)” value ([1]; titrant volume 3.4 of 1M MnCl2) was 702.0 mVolts and the “mVolts (Negative Value)” value ([1]; titrant volume 3.6 of 1M MnCl2) was 686.7 mVolts. The “mVolts (Negative Value)” value ([1]; titrant volume 3.9 of 1M MnCl2) was 678.2 mVolts, the “mVolts (Negative Value)” value ([1]; titrant volume 4.1 of 1M MnCl2) was 672.4 mVolts and the “mVolts (Negative Value)” value ([1]; titrant volume 4.3 of 1M MnCl2) was 667.8 mVolts. The “mVolts (Negative Value)” value ([1]; titrant volume 4.5 of 1M MnCl2) was 664.4 mVolts, the “mVolts (Negative Value)” value ([1]; titrant volume 4.7 of 1M MnCl2) was 661.8 mVolts and the “mVolts (Negative Value)” value ([1]; titrant volume 4.9 of 1M MnCl2) was 658.9 mVolts. For the same substance, the “mVolts (Negative Value)” value ([1]; titrant volume 5.2 of 1M MnCl2) was 656.6 mVolts, the “mVolts (Negative Value)” value ([1]; titrant volume 5.4 of 1M MnCl2) was 654.6 mVolts and the “mVolts (Negative Value)” value ([1]; titrant volume 6.0 of 1M MnCl2) was 649.8 mVolts. It also gave a mVolts ([2]; Volume 0.0 of 1.0M MnCl2, ~200 mM sulfide) of 934.0 mVolts, a mVolts ([2]; Volume 0.2 of 1.0M MnCl2, ~200 mM sulfide) of 931.7 mVolts and a mVolts ([2]; Volume 0.4 of 1.0M MnCl2, ~200 mM sulfide) of 931.6 mVolts. It also gave a mVolts ([2]; Volume 0.6 of 1.0M MnCl2, ~200 mM sulfide) of 930.7 mVolts, a mVolts ([2]; Volume 0.8 of 1.0M MnCl2, ~200 mM sulfide) of 929.4 mVolts and a mVolts ([2]; Volume 1.0 of 1.0M MnCl2, ~200 mM sulfide) of 926.6 mVolts. It also gave a mVolts ([2]; Volume 1.2 of 1.0M MnCl2, ~200 mM sulfide) of 921.4 mVolts, a mVolts ([2]; Volume 1.4 of 1.0M MnCl2, ~200 mM sulfide) of 906.6 mVolts and a mVolts ([2]; Volume 1.7 of 1.0M MnCl2, ~200 mM sulfide) of 903.0 mVolts. It also gave a mVolts ([2]; Volume 1.8 of 1.0M MnCl2, ~200 mM sulfide) of 863.5 mVolts, a mVolts ([2]; Volume 1.9 of 1.0M MnCl2, ~200 mM sulfide) of 855.2 mVolts and a mVolts ([2]; Volume 2.0 of 1.0M MnCl2, ~200 mM sulfide) of 848.1 mVolts. It also gave a mVolts ([2]; Volume 2.1 of 1.0M MnCl2, ~200 mM sulfide) of 841.7 mVolts, a mVolts ([2]; Volume 2.2 of 1.0M MnCl2, ~200 mM sulfide) of 834.5 mVolts and a mVolts ([2]; Volume 2.3 of 1.0M MnCl2, ~200 mM sulfide) of 829.2 mVolts. For the same substance, the mVolts ([2]; Volume 2.4 of 1.0M MnCl2, ~200 mM sulfide) was 823.9 mVolts, the mVolts ([2]; Volume 2.5 of 1.0M MnCl2, ~200 mM sulfide) was 817.9 mVolts and the mVolts ([2]; Volume 2.7 of 1.0M MnCl2, ~200 mM sulfide) was 811.4 mVolts. It also gave a mVolts ([2]; Volume 2.8 of 1.0M MnCl2, ~200 mM sulfide) of 804.0 mVolts, a mVolts ([2]; Volume 2.9 of 1.0M MnCl2, ~200 mM sulfide) of 794.9 mVolts and a mVolts ([2]; Volume 3.0 of 1.0M MnCl2, ~200 mM sulfide) of 783.1 mVolts. For the same substance, the mVolts ([2]; Volume 3.1 of 1.0M MnCl2, ~200 mM sulfide) was 767.9 mVolts, the mVolts ([2]; Volume 3.3 of 1.0M MnCl2, ~200 mM sulfide) was 746.6 mVolts and the mVolts ([2]; Volume 3.4 of 1.0M MnCl2, ~200 mM sulfide) was 733.1 mVolts. The mVolts ([2]; Volume 3.5 of 1.0M MnCl2, ~200 mM sulfide) was 718.3 mVolts, the mVolts ([2]; Volume 3.6 of 1.0M MnCl2, ~200 mM sulfide) was 704.2 mVolts and the mVolts ([2]; Volume 3.7 of 1.0M MnCl2, ~200 mM sulfide) was 694.2 mVolts. For the same substance, the mVolts ([2]; Volume 3.8 of 1.0M MnCl2, ~200 mM sulfide) was 687.0 mVolts, the mVolts ([2]; Volume 3.9 of 1.0M MnCl2, ~200 mM sulfide) was 679.7 mVolts and the mVolts ([2]; Volume 4.0 of 1.0M MnCl2, ~200 mM sulfide) was 674.1 mVolts. For the same substance, the mVolts ([2]; Volume 4.2 of 1.0M MnCl2, ~200 mM sulfide) was 670.1 mVolts, the mVolts ([2]; Volume 4.4 of 1.0M MnCl2, ~200 mM sulfide) was 665.4 mVolts and the mVolts ([2]; Volume 4.6 of 1.0M MnCl2, ~200 mM sulfide) was 661.8 mVolts. The mVolts ([2]; Volume 5.0 of 1.0M MnCl2, ~200 mM sulfide) was 657.1 mVolts, the “total sulfide ion concentrations in the rumen fluid versus BaCl2 and CaCl2” value ([2]; ~200 mM sulfide) was “substantially lower total sulfide ion concentrations” and the mVolts ([3]; Vol 1M Na2S 0.0) was 533.2 mVolts. For the same substance, the mVolts ([3]; Vol 1M Na2S 0.3) was 617.3 mVolts, the mVolts ([3]; Vol 1M Na2S 0.5) was 631.2 mVolts and the mVolts ([3]; Vol 1M Na2S 0.8) was 640.0 mVolts. It also gave a mVolts ([3]; Vol 1M Na2S 1.1) of 641.8 mVolts, a mVolts ([3]; Vol 1M Na2S 1.4) of 647.5 mVolts and a mVolts ([3]; Vol 1M Na2S 1.7) of 649.0 mVolts. It also gave a mVolts ([3]; Vol 1M Na2S 2.1) of 652.1 mVolts, a mVolts ([3]; Vol 1M Na2S 2.3) of 653.0 mVolts and a mVolts ([3]; Vol 1M Na2S 2.6) of 652.6 mVolts. For the same substance, the mVolts ([3]; Vol 1M Na2S 2.9) was 658.0 mVolts, the mVolts ([3]; Vol 1M Na2S 3.2) was 667.2 mVolts and the mVolts ([3]; Vol 1M Na2S 3.4) was 678.8 mVolts. For the same substance, the mVolts ([3]; Vol 1M Na2S 3.5) was 691.3 mVolts, the mVolts ([3]; Vol 1M Na2S 3.6) was 710.6 mVolts and the mVolts ([3]; Vol 1M Na2S 3.8) was 742.0 mVolts. The mVolts ([3]; Vol 1M Na2S 3.9) was 770.9 mVolts, the mVolts ([3]; Vol 1M Na2S 4.0) was 783.4 mVolts and the mVolts ([3]; Vol 1M Na2S 4.1) was 804.1 mVolts. It also gave a mVolts ([3]; Vol 1M Na2S 4.2) of 820.2 mVolts, a mVolts ([3]; Vol 1M Na2S 4.3) of 837.8 mVolts and a mVolts ([3]; Vol 1M Na2S 4.4) of 851.7 mVolts. The mVolts ([3]; Vol 1M Na2S 4.5) was 863.4 mVolts, the mVolts ([3]; Vol 1M Na2S 4.7) was 877.0 mVolts and the mVolts ([3]; Vol 1M Na2S 4.8) was 883.6 mVolts. The mVolts ([3]; Vol 1M Na2S 4.9) was 888.2 mVolts, the mVolts ([3]; Vol 1M Na2S 5.0) was 893.2 mVolts and the “precipitating sulfide ion versus MnO(II) and MnO2(IV)” value ([3]; rumen fluid titrated with 1.0M Na2S) was “much more effective in precipitating sulfide ion”. The “ADG (average daily gain)” value [4] was 3.58 lb/head/day, the “DMI (dry matter intake)” value [4] was 23.18 lb/head/day and the End wt. [4] was 1147.5 lb. For the same substance, the “Feed Efficiency (DM/gain)” value [4] was 6.48.
